Measurements reported in patent US5916881A, “High trehalose content syrup” (Kabushiki Kaisha Hayashibara Seibutsu Kagaku Kenkyujo, priority 1996, dated 1999).
Entries after “also recorded” stand apart in the source; their conditions may differ.

Assays:
[1] = Trehalose crystallization inhibitory effect of coexisting saccharides in a trehalose syrup over the water solubility (Experiment 2); assay type: physicochemical; conditions: trehalose dissolved in an amount over the water solubility; summary of Table 2
Protocol: Trehalose was dissolved by heating in water in an amount of 1.5-times the water solubility at 10° C., and the trehalose solution was allowed to stand at a relatively-cold place for checking the trehalose crystallization inhibitory effect by saccharides. […] With this relationship, testing solutions were prepared by dissolving by heating in 100 parts by weight of water in a respective glass beaker 83 parts by weight of trehalose, and a saccharide in an amount of 10% to the trehalose, i.e., 8.3 parts by weight of the saccharide selected from the group consisting of glucose, maltose, isomaltose, lactose, maltotriose, panose, maltotetraose, sorbitol, maltitol, maltotriitol, sucrose, raffinose, erlose, saccharides such as α-glucosyltrehalose or monoglucosyltrehalose, α-maltosyltrehalose or diglucosyltrehalose, and α-maltotriosyltrehalose or triglucosyltrehalose as disclosed in Japanese Patent Kokai No.143,876/95 by the present applicant; a saccharide such as α-isomaltosyl-α-glucoside or monoglucosyltrehalose as disclosed in Japanese Patent Kokai No.217,784/96 by the same applicant; and a saccharide such as α-maltosyl-α-maltoside or diglucosyltrehalose as disclosed in Japanese Patent Application No.167,486/94 by the same applicant. Each solution was allowed to stand in a thermostatic place kept at 5, 10 or 15° C. for one week, followed by macroscopically observing the presence of trehalose crystal for evaluating the trehalose crystallization inhibitory effect by the saccharides.

[2] = Influence of the concentrations of trehalose and of mono-/diglucosyltrehalose on trehalose crystallization (Experiment 3); assay type: physicochemical; parameters: key to Formation of trehalose crystal: "+" means that it crystallized; "-" means that it did not
Protocol: The trehalose crystallization inhibitory effect was experimented by dissolving trehalose under heating conditions in water in an amount of 1.5, 2.0, 2.5, 2.8 or 3.3-times the water solubility at 10° C., dissolving in the solution other oligosaccharides having a trehalose structure within their molecules in an amount of 10, 30 or 60% to the trehalose, d.s.b, and allowing the resultant solution to stand at a relatively-low temperature.
Based on the results in Experiment 1, 1.5, 2.0, 2.5, 2.8 and 3.3-times the water solubility of trehalose in 100 parts by weight of water at 10° C. water corresponded to 83, 111, 138, 155 and 182 parts by weight of trehalose anhydride, d.s.b., respectively With this relationship, testing solutions with the composition as shown in Table 3 were prepared by dissolving under heating conditions in a respective glass beaker 100 parts by weight of water, trehalose in a prescribed part by weight, and either monoglucosyltrehalose, i.e., α-glucosyltrehalose or diglucosyltrehalose, i.e., α-maltosyltrehalose in a prescribed ratio, allowing the solution to stand in a thermostatic place kept at 5, 10 or 15° C. for checking the trehalose crystallization inhibitory effect.

With `OC[C@H]1O[C@H](O[C@H]2O[C@H](CO)[C@@H](O[C@H]3O[C@H](CO)[C@@H](O)[C@H](O)[C@H]3O)[C@H](O)[C@H]2O)[C@H](O)[C@@H](O)[C@@H]1O` [α-Glycosyltrehalose, α-glucosyltrehalose] the “Trehalose crystallization inhibitory effect (in words)” value [1] was “specifically and effectively inhibited”, the “Trehalose crystallization inhibitory effect (in words)” value ([2]; summary of Table 3) was “satisfactory trehalose crystallization inhibitory effect” and the “Formation of trehalose crystal” value ([2]; water 100, trehalose 83, coexisting saccharide 8.3 parts by weight, 5° C. (1.7-times solubility)) was “-”. For the same compound, the “Formation of trehalose crystal” value ([2]; water 100, trehalose 83, coexisting saccharide 8.3 parts by weight, 10° C. (1.5-times solubility)) was “-”, the “Formation of trehalose crystal” value ([2]; water 100, trehalose 83, coexisting saccharide 8.3 parts by weight, 15° C. (1.3-times solubility)) was “-” and the “Formation of trehalose crystal” value ([2]; water 100, trehalose 83, coexisting saccharide 25 parts by weight, 5° C. (1.7-times solubility)) was “-”. The “Formation of trehalose crystal” value ([2]; water 100, trehalose 83, coexisting saccharide 25 parts by weight, 10° C. (1.5-times solubility)) was “-”, the “Formation of trehalose crystal” value ([2]; water 100, trehalose 83, coexisting saccharide 25 parts by weight, 15° C. (1.3-times solubility)) was “-” and the “Formation of trehalose crystal” value ([2]; water 100, trehalose 83, coexisting saccharide 50 parts by weight, 5° C. (1.7-times solubility)) was “-”. The “Formation of trehalose crystal” value ([2]; water 100, trehalose 83, coexisting saccharide 50 parts by weight, 10° C. (1.5-times solubility)) was “-”, the “Formation of trehalose crystal” value ([2]; water 100, trehalose 83, coexisting saccharide 50 parts by weight, 15° C. (1.3-times solubility)) was “-” and the “Formation of trehalose crystal” value ([2]; water 100, trehalose 111, coexisting saccharide 11 parts by weight, 5° C. (2.2-times solubility)) was “+”. The “Formation of trehalose crystal” value ([2]; water 100, trehalose 111, coexisting saccharide 11 parts by weight, 10° C. (2.0-times solubility)) was “-”, the “Formation of trehalose crystal” value ([2]; water 100, trehalose 111, coexisting saccharide 11 parts by weight, 15° C. (1.8-times solubility)) was “-” and the “Formation of trehalose crystal” value ([2]; water 100, trehalose 111, coexisting saccharide 33 parts by weight, 5° C. (2.2-times solubility)) was “-”. The “Formation of trehalose crystal” value ([2]; water 100, trehalose 111, coexisting saccharide 33 parts by weight, 10° C. (2.0-times solubility)) was “-”, the “Formation of trehalose crystal” value ([2]; water 100, trehalose 111, coexisting saccharide 33 parts by weight, 15° C. (1.8-times solubility)) was “-” and the “Formation of trehalose crystal” value ([2]; water 100, trehalose 111, coexisting saccharide 66 parts by weight, 5° C. (2.2-times solubility)) was “-”. The “Formation of trehalose crystal” value ([2]; water 100, trehalose 111, coexisting saccharide 66 parts by weight, 10° C. (2.0-times solubility)) was “-”, the “Formation of trehalose crystal” value ([2]; water 100, trehalose 111, coexisting saccharide 66 parts by weight, 15° C. (1.8-times solubility)) was “-” and the “Formation of trehalose crystal” value ([2]; water 100, trehalose 138, coexisting saccharide 14 parts by weight, 5° C. (2.8-times solubility)) was “+”. The “Formation of trehalose crystal” value ([2]; water 100, trehalose 138, coexisting saccharide 14 parts by weight, 10° C. (2.5-times solubility)) was “+”, the “Formation of trehalose crystal” value ([2]; water 100, trehalose 138, coexisting saccharide 14 parts by weight, 15° C. (2.2-times solubility)) was “-” and the “Formation of trehalose crystal” value ([2]; water 100, trehalose 138, coexisting saccharide 42 parts by weight, 5° C. (2.8-times solubility)) was “+”. For the same compound, the “Formation of trehalose crystal” value ([2]; water 100, trehalose 138, coexisting saccharide 42 parts by weight, 10° C. (2.5-times solubility)) was “+”, the “Formation of trehalose crystal” value ([2]; water 100, trehalose 138, coexisting saccharide 42 parts by weight, 15° C. (2.2-times solubility)) was “-” and the “Formation of trehalose crystal” value ([2]; water 100, trehalose 138, coexisting saccharide 83 parts by weight, 5° C. (2.8-times solubility)) was “+”. For the same compound, the “Formation of trehalose crystal” value ([2]; water 100, trehalose 138, coexisting saccharide 83 parts by weight, 10° C. (2.5-times solubility)) was “+”, the “Formation of trehalose crystal” value ([2]; water 100, trehalose 138, coexisting saccharide 83 parts by weight, 15° C. (2.2-times solubility)) was “-” and the “Formation of trehalose crystal” value ([2]; water 100, trehalose 155, coexisting saccharide 16 parts by weight, 5° C. (3.1-times solubility)) was “+”. For the same compound, the “Formation of trehalose crystal” value ([2]; water 100, trehalose 155, coexisting saccharide 16 parts by weight, 10° C. (2.8-times solubility)) was “+”, the “Formation of trehalose crystal” value ([2]; water 100, trehalose 155, coexisting saccharide 16 parts by weight, 15° C. (2.5-times solubility)) was “+” and the “Formation of trehalose crystal” value ([2]; water 100, trehalose 155, coexisting saccharide 46 parts by weight, 5° C. (3.1-times solubility)) was “+”. The “Formation of trehalose crystal” value ([2]; water 100, trehalose 155, coexisting saccharide 46 parts by weight, 10° C. (2.8-times solubility)) was “+”, the “Formation of trehalose crystal” value ([2]; water 100, trehalose 155, coexisting saccharide 46 parts by weight, 15° C. (2.5-times solubility)) was “+” and the “Formation of trehalose crystal” value ([2]; water 100, trehalose 155, coexisting saccharide 93 parts by weight, 5° C. (3.1-times solubility)) was “+”. For the same compound, the “Formation of trehalose crystal” value ([2]; water 100, trehalose 155, coexisting saccharide 93 parts by weight, 10° C. (2.8-times solubility)) was “+”, the “Formation of trehalose crystal” value ([2]; water 100, trehalose 155, coexisting saccharide 93 parts by weight, 15° C. (2.5-times solubility)) was “+” and the “Formation of trehalose crystal” value ([2]; water 100, trehalose 182, coexisting saccharide 18 parts by weight, 5° C. (3.7-times solubility)) was “+”. For the same compound, the “Formation of trehalose crystal” value ([2]; water 100, trehalose 182, coexisting saccharide 18 parts by weight, 10° C. (3.3-times solubility)) was “+”, the “Formation of trehalose crystal” value ([2]; water 100, trehalose 182, coexisting saccharide 18 parts by weight, 15° C. (3.0-times solubility)) was “+” and the “Formation of trehalose crystal” value ([2]; water 100, trehalose 182, coexisting saccharide 55 parts by weight, 5° C. (3.7-times solubility)) was “+”. The “Formation of trehalose crystal” value ([2]; water 100, trehalose 182, coexisting saccharide 55 parts by weight, 10° C. (3.3-times solubility)) was “+”, the “Formation of trehalose crystal” value ([2]; water 100, trehalose 182, coexisting saccharide 55 parts by weight, 15° C. (3.0-times solubility)) was “+” and the “Formation of trehalose crystal” value ([2]; water 100, trehalose 182, coexisting saccharide 110 parts by weight, 5° C. (3.7-times solubility)) was “+”. The “Formation of trehalose crystal” value ([2]; water 100, trehalose 182, coexisting saccharide 110 parts by weight, 10° C. (3.3-times solubility)) was “+” and the “Formation of trehalose crystal” value ([2]; water 100, trehalose 182, coexisting saccharide 110 parts by weight, 15° C. (3.0-times solubility)) was “+”.
With `OC[C@H]1O[C@H](OC[C@H]2O[C@H](O[C@H]3O[C@H](CO)[C@@H](O)[C@H](O)[C@H]3O)[C@H](O)[C@@H](O)[C@@H]2O)[C@H](O)[C@@H](O)[C@@H]1O` [α-Isomaltosyl-α-glucoside, α-isomaltosyl-α-glucoside] the “Trehalose crystallization inhibitory effect (in words)” value [1] was “specifically and effectively inhibited”.
With `OC[C@H]1O[C@H](O[C@H]2[C@H](O)[C@@H](O)[C@@H](O[C@H]3O[C@H](CO)[C@@H](O[C@H]4O[C@H](CO)[C@@H](O)[C@H](O)[C@H]4O)[C@H](O)[C@H]3O)O[C@@H]2CO)[C@H](O)[C@@H](O)[C@@H]1O` [α-Maltosyl-α-maltoside, α-maltosyl-α-maltoside] the “Trehalose crystallization inhibitory effect (in words)” value [1] was “specifically and effectively inhibited”.
For `OC[C@H]1O[C@H](O[C@H]2O[C@H](CO)[C@@H](O[C@H]3O[C@H](CO)[C@@H](O[C@H]4O[C@H](CO)[C@@H](O[C@H]5O[C@H](CO)[C@@H](O)[C@H](O)[C@H]5O)[C@H](O)[C@H]4O)[C@H](O)[C@H]3O)[C@H](O)[C@H]2O)[C@H](O)[C@@H](O)[C@@H]1O` [α-Maltotriosyltrehalose, α-maltotriosyltrehalose], the “Trehalose crystallization inhibitory effect (in words)” value [1] was “specifically and effectively inhibited; also recorded: relatively-low trehalose crystallization inhibitory effect”.
